Results taken from PubChem BioAssay AID328 (DTP/NCI, 2004).
Values joined by “and” are separate entries in the source; they are usually repeats but may differ in a detail not shown here. Equal values may be shown once. Toxic doses and inconclusive results are not listed. How the source made its calls: active means survival T/C of 150% or more; inactive means T/C below 125% in these data.

Test system: BDF1 mice, P388 leukemia ip, median survival T/C
Experiment: NCI In Vivo Anticancer Drug Screen. Data for tumor model P388 Leukemia (intraperitoneal) in B6D2F1 (BDF1) mice
Details: endpoint: median survival time, higher = longer survival
In short: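 Compound-treated tumour-bearing mice were compared with vehicle-treated controls. Survival was recorded, and the value is the treated-group measurement divided by the control-group measurement (T/C).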

[1] = dose: 50.0 mg/kg/injection, schedule: Q01DX009 (ip), vehicle: saline
[2] = dose: 100.0 mg/kg/injection, schedule: Q01DX009 (ip), vehicle: saline
[3] = dose: 100.0 mg/kg/injection, schedule: Q01DX009 (ip), vehicle: saline with Tween-80
[4] = dose: 200.0 mg/kg/injection, schedule: Q01DX009 (ip), vehicle: saline with Tween-80
[5] = dose: 400.0 mg/kg/injection, schedule: Q01DX009 (ip), vehicle: saline with Tween-80
[6] = dose: 12.5 mg/kg/injection, schedule: Q04DX003 (ip), vehicle: saline with Tween-80
[7] = dose: 25.0 mg/kg/injection, schedule: Q04DX003 (ip), vehicle: saline with Tween-80
[8] = dose: 6.25 mg/kg/injection, schedule: Q01DX009 (ip), vehicle: water
[9] = dose: 12.5 mg/kg/injection, schedule: Q01DX009 (ip), vehicle: water
[10] = dose: 25.0 mg/kg/injection, schedule: Q01DX009 (ip), vehicle: water
[11] = dose: 100.0 mg/kg/injection, schedule: Q01DX009 (ip), vehicle: water
[12] = dose: 50.0 mg/kg/injection, schedule: Q01DX009 (ip), vehicle: saline with Tween-80
[13] = dose: 12.5 mg/kg/injection, schedule: Q01DX009 (ip), vehicle: saline with Tween-80
[14] = dose: 100.0 mg/kg/injection, schedule: Q04DX003 (ip), vehicle: Klucel (hydroxypropylcellulose) (HPC)
[15] = dose: 6.25 mg/kg/injection, schedule: Q04DX003 (ip), vehicle: saline with Tween-80

Measured: T/C

O=C(O)C1(O)C(Cl)(Cl)C(Cl)=C(Cl)C1(Cl)Cl
inactive: dose: 25.0 mg/kg/injection, schedule: Q01DX009 (ip), vehicle: saline 118 % of control | [1] 122 % of control | [2] 118 % of control

CCOc1ccc(Br)cc1C=O
inactive: [3] 100 % of control | dose: 100.0 mg/kg/injection, schedule: Q04DX003 (ip), vehicle: saline with Tween-80 90 % of control | [4] 100 % of control | dose: 200.0 mg/kg/injection, schedule: Q04DX003 (ip), vehicle: saline with Tween-80 95 % of control | [5] 100 % of control | dose: 400.0 mg/kg/injection, schedule: Q04DX003 (ip), vehicle: saline with Tween-80 100 % of control

C/C=C1\C(=O)OC23C=CC4C(C(=O)OC)C(O)OC(OC12)C43 (stereo unspecified)
inactive: dose: 0.04 mg/kg/injection, schedule: Q01DX009 (ip), vehicle: saline 95 % of control | dose: 0.2 mg/kg/injection, schedule: Q01DX009 (ip), vehicle: saline 100 % of control | dose: 1.0 mg/kg/injection, schedule: Q01DX009 (ip), vehicle: saline + alcohol 110 % of control

CN=C(NC)c1ccc(NC(=O)/C=C\c2ccc(C(=O)Nc3ccc(C(=NC)NC)cc3)cc2)cc1
inactive: dose: 0.15 mg/kg/injection, schedule: Q01DX009 (ip), vehicle: saline with Tween-80 116 % of control | dose: 1.32 mg/kg/injection, schedule: Q04DX003 (ip), vehicle: saline with Tween-80 108 % of control | dose: 2.0 mg/kg/injection, schedule: Q04DX003 (ip), vehicle: saline with Tween-80 112 % of control | [7] 100 % of control | dose: 50.0 mg/kg/injection, schedule: Q04DX003 (ip), vehicle: saline with Tween-80 86 % of control
active: dose: 0.5 mg/kg/injection, schedule: Q01DX009 (ip), vehicle: saline with Tween-80 155 % of control | dose: 1.5 mg/kg/injection, schedule: Q01DX009 (ip), vehicle: saline with Tween-80 161 % of control | dose: 4.4 mg/kg/injection, schedule: Q04DX003 (ip), vehicle: saline with Tween-80 154 % of control | dose: 4.5 mg/kg/injection, schedule: Q04DX003 (ip), vehicle: saline with Tween-80 162 % of control | dose: 6.6 mg/kg/injection, schedule: Q04DX003 (ip), vehicle: saline with Tween-80 168 % of control | dose: 10.0 mg/kg/injection, schedule: Q04DX003 (ip), vehicle: saline with Tween-80 154 % of control | [6] 177 % of control | dose: 15.0 mg/kg/injection, schedule: Q04DX003 (ip), vehicle: saline with Tween-80 177 % of control

Cn1cc(/C=C\C(=O)O)c2nccnc21
inactive: [8] 96 % of control | [9] 90 % of control | [10] 90 % of control | [11] 102 % of control

COc1c(Cl)cc2c(c1OC)N(C)C1N3C(=O)C4(C)SSC3(C(=O)N4C)C(O)C21O (stereo unspecified)
inactive: dose: 0.12 mg/kg/injection, schedule: Q01DX009 (ip), vehicle: Klucel (hydroxypropylcellulose) (HPC) 86 % of control | dose: 0.25 mg/kg/injection, schedule: Q01DX009 (ip), vehicle: Klucel (hydroxypropylcellulose) (HPC) 109 % of control

Clc1ccccc1N1CN(c2ccccc2Cl)CN(c2ccccc2Cl)C1
inactive: [12] 104 % of control | [3] 100 % of control | [4] 100 % of control

C=CC(=O)NCCCC(=O)O
inactive: [1] 94 % of control | [2] 91 % of control | dose: 200.0 mg/kg/injection, schedule: Q01DX009 (ip), vehicle: saline 100 % of control

BrCCCC[P+](c1ccccc1)(c1ccccc1)c1ccccc1
inactive: dose: 6.25 mg/kg/injection, schedule: Q01DX010 (ip), vehicle: saline 113 % of control | dose: 12.5 mg/kg/injection, schedule: Q01DX010 (ip), vehicle: saline 118 % of control

Cc1cc2nc3c(=O)[nH]c(=O)nc-3n(CC(O)C(O)C(O)CO)c2cc1C (stereo unspecified)
inactive: [13] 102 % of control | dose: 25.0 mg/kg/injection, schedule: Q01DX009 (ip), vehicle: saline with Tween-80 94 % of control | [12] 107 % of control

Cc1c(C#N)c2n(c1C)CCN2
inactive: dose: 6.0 mg/kg/injection, schedule: Q01DX009 (ip), vehicle: Klucel (hydroxypropylcellulose) (HPC) 104 % of control | dose: 12.0 mg/kg/injection, schedule: Q01DX009 (ip), vehicle: Klucel (hydroxypropylcellulose) (HPC) 86 % of control | dose: 25.0 mg/kg/injection, schedule: Q01DX009 (ip), vehicle: Klucel (hydroxypropylcellulose) (HPC) 92 % of control and 100 % of control | dose: 25.0 mg/kg/injection, schedule: Q04DX003 (ip), vehicle: Klucel (hydroxypropylcellulose) (HPC) 95 % of control | dose: 50.0 mg/kg/injection, schedule: Q04DX003 (ip), vehicle: Klucel (hydroxypropylcellulose) (HPC) 100 % of control | [14] 108 % of control

CCCCNCCC(SSSC(CCNCCCC)c1ccc(Cl)cc1)c1ccc(Cl)cc1 (stereo unspecified)
inactive: [15] 104 % of control | [6] 100 % of control | [7] 109 % of control

FC(F)(F)c1ccc2c(c1)N(CCCN(CCCl)CCCl)c1ccccc1S2
inactive: dose: 3.1 mg/kg/injection, schedule: Q04DX003 (ip), vehicle: saline with Tween-80 112 % of control | [15] 122 % of control | [7] 119 % of control

O=C(O)/C=C/c1cc2c(cc1[N+](=O)[O-])OCO2
inactive: dose: 100.0 mg/kg/injection, schedule: Q01DX009 (ip), vehicle: Klucel (hydroxypropylcellulose) (HPC) 88 % of control | [14] 91 % of control | dose: 200.0 mg/kg/injection, schedule: Q01DX009 (ip), vehicle: Klucel (hydroxypropylcellulose) (HPC) 96 % of control | dose: 200.0 mg/kg/injection, schedule: Q04DX003 (ip), vehicle: Klucel (hydroxypropylcellulose) (HPC) 95 % of control | dose: 400.0 mg/kg/injection, schedule: Q04DX003 (ip), vehicle: Klucel (hydroxypropylcellulose) (HPC) 87 % of control

CC1(C)C2=CCCC3(OCCO3)C2(C)CCC1O (stereo unspecified)
inactive: [3] 100 % of control | [4] 100 % of control | [5] 90 % of control

CCCCCCc1nc2nc(Cl)c(Cl)nc2[nH]1
inactive: dose: 0.78 mg/kg/injection, schedule: Q01DX009 (ip), vehicle: saline with Tween-80 100 % of control | dose: 1.56 mg/kg/injection, schedule: Q01DX009 (ip), vehicle: saline with Tween-80 89 % of control | dose: 3.12 mg/kg/injection, schedule: Q01DX009 (ip), vehicle: saline with Tween-80 92 % of control | dose: 6.25 mg/kg/injection, schedule: Q01DX009 (ip), vehicle: saline with Tween-80 92 % of control | [13] 95 % of control

CSCC1(O)CCCCC1
inactive: [12] 111 % of control | [3] 101 % of control | [4] 112 % of control

CN(C)c1ccc(C2OC3(CCCCC3)C[N+]23CCCC3)cc1 (stereo unspecified)
inactive: dose: 18.0 mg/kg/injection, schedule: Q01DX009 (ip), vehicle: saline 110 % of control | dose: 25.0 mg/kg/injection, schedule: Q04DX003 (ip), vehicle: saline 95 % of control | dose: 28.0 mg/kg/injection, schedule: Q01DX009 (ip), vehicle: saline 105 % of control | dose: 40.0 mg/kg/injection, schedule: Q01DX009 (ip), vehicle: saline 94 % of control | dose: 50.0 mg/kg/injection, schedule: Q04DX003 (ip), vehicle: saline 100 % of control | dose: 75.0 mg/kg/injection, schedule: Q01DX001 (ip), vehicle: Klucel (hydroxypropylcellulose) (HPC) 104 % of control | dose: 100.0 mg/kg/injection, schedule: Q04DX003 (ip), vehicle: saline 90 % of control | dose: 150.0 mg/kg/injection, schedule: Q01DX001 (ip), vehicle: Klucel (hydroxypropylcellulose) (HPC) 100 % of control

CC1=NN(CCO)C(=O)C1
inactive: [12] 95 % of control | [3] 92 % of control | [4] 93 % of control

Nc1ccn(CC(=O)c2ccc(Cl)s2)c(=O)n1
inactive: dose: 50.0 mg/kg/injection, schedule: Q01DX009 (ip), vehicle: water 100 % of control | [11] 108 % of control | dose: 200.0 mg/kg/injection, schedule: Q01DX009 (ip), vehicle: water 100 % of control

O=C(N/N=C\c1ccc(N(CCCl)CCCl)cc1)c1cccnc1
inactive: dose: 100.0 mg/kg/injection, schedule: Q01DX009 (ip), vehicle: gum acacia 112 % of control
active: dose: 200.0 mg/kg/injection, schedule: Q01DX009 (ip), vehicle: gum acacia 172 % of control

NC(N)=Nc1ccc(OC(=O)c2ccc(N=C(N)N)cc2)cc1
inactive: dose: 1.56 mg/kg/injection, schedule: Q01DX009 (ip), vehicle: water 106 % of control | dose: 3.12 mg/kg/injection, schedule: Q01DX009 (ip), vehicle: water 94 % of control | [8] 103 % of control | [9] 110 % of control | [10] 103 % of control
